According to ChEMBL document CHEMBL1123322, “Muscarinic ganglionic stimulants: conformationally restrained analogues related to [4-[[N-(3-chlorophenyl)carbamoyl]oxy]-2-butynyl]trimethylammonium chloride” (1986):
Calls of active or inactive are those of the source. The calls are words filed in the database; no cut-off is given here.

What was measured:
Format in all cases: functional
Rattus norvegicus [1] = species on record: Rattus norvegicus; assay: Compound was tested for the production of […] sensitive pressor response; Range 20-30 mmHg
Rattus norvegicus [2] = species on record: Rattus norvegicus; assay: Compound was tested for the production of depressor effects in rat
[3] = biological target: T1, Muscarinic acetylcholine receptor M1 (Rattus norvegicus) (UniProt P08482); assay: Muscarinic M1 receptor ganglion-stimulating activity as pressor responses in pithed rats; Inactive
T1 sequence (whole entry): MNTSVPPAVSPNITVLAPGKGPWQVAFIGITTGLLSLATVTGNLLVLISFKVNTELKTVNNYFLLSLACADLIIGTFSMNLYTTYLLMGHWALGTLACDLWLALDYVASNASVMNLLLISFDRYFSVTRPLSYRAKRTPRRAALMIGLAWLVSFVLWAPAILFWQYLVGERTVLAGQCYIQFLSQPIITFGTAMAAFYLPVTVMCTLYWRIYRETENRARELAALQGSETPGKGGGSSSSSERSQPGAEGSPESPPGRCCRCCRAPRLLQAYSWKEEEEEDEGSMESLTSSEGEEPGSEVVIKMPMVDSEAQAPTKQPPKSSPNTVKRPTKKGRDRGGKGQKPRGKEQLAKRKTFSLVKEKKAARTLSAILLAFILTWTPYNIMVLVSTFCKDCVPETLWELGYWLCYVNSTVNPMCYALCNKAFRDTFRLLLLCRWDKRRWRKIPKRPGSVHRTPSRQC

Rattus norvegicus [4] = species on record: Rattus norvegicus; assay: Compound was tested for the production of piperizine sensitive pressor response

| SMILES | Activity [3] | Mean arterial blood pressure (Rattus norvegicus [1]) | Activity (Rattus norvegicus [2]) | Activity (Rattus norvegicus [4]) |
| --- | --- | --- | --- | --- |
| CN1CC=C(COC(=O)Nc2cccc(Cl)c2)C1 |  | 20 mmHg |  |  |
| C[N+]1(C)CCC(COC(=O)Nc2cccc(Cl)c2)CC1 |  | 20 mmHg |  |  |
| C[N+]1(C)CC=C(COC(=O)Nc2ccc(Cl)cc2)CC1.[Br-] |  |  |  | 0.1 µM/kg |
| C[N+]1(C)CC=C(COC(=O)Nc2cccc(Cl)c2)C1 |  |  | 3 µM/kg |  |
| CN1CCC(COC(=O)Nc2cccc(Cl)c2)CC1 |  |  | 0.1 µM/kg |  |
| C[N+]1(C)CC=C(COC(=O)Nc2cccc(Cl)c2)CC1.Cc1ccc(S(=O)(=O)[O-])cc1 | inactive |  | >2 µM/kg | 0.1 µM/kg |
| C[N+]1(C)CCC=C(COC(=O)Nc2ccc(Cl)cc2)C1.[I-] |  |  | 0.1 µM/kg |  |
| Cc1cccc(NC(=O)OCC2C=CCN(C)C2)c1 (stereo not given) | inactive |  | >2 µM/kg |  |
| C[N+]1(C)CCC=C(COC(=O)Nc2cccc(Cl)c2)C1.[I-] | inactive |  | >2 µM/kg |  |

Second part, led by results:

| Activity [3] | SMILES | Mean arterial blood pressure (Rattus norvegicus [1]) | Activity (Rattus norvegicus [2]) | Activity (Rattus norvegicus [4]) |
| --- | --- | --- | --- | --- |
| inactive | CN1CCC=C(COC(=O)Nc2cccc(Cl)c2)C1 |  | >2 µM/kg |  |
| inactive | CN1CCC=C(COC(=O)Nc2ccccc2Cl)C1 |  | >2 µM/kg |  |
| inactive | CN1CCC=C(COC(=O)Nc2ccc(Cl)cc2)C1 |  | >2 µM/kg |  |
| inactive | CN1CC=C(COC(=O)Nc2cccc(Cl)c2)CC1 |  | >2 µM/kg |  |
| inactive | CN1CC=C(COC(=O)Nc2ccc(Cl)cc2)CC1 |  | >2 µM/kg |  |
| inactive | Cc1cccc(NC(=O)OCC2=CCN(C)CC2)c1 |  | >2 µM/kg |  |
